# Tests used:
# POLCO = test: Herbicidal post-emergence action 1a (greenhouse pots, visual rating); assay type: in vivo, Polygonum convolvulus; details: dosage 320 g/ha, visual rating about 3 weeks after treatment
# Outline: (§1)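 Weeds and crops sown in sandy loam in greenhouse pots were sprayed post-emergence at the one-leaf stage (2–3 weeks after sowing) with WP or EC formulations plus 0.5% additive at 600 l/ha water, 320 and/or 80 g/ha. About 3 weeks later damage was rated visually against untreated controls (0% = no effect, 100% = dead).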
# ECHCG [1] = test: as above; assay type: in vivo, Echinochloa crus-galli; details: Dosage 320 g/ha; rated visually about 3 weeks after treatment; 100% = plants have died, 0% = like control plants
# Procedure: (§2) [table] a) Seeds of monocotyledonous and dicotyledonous weeds and crop plants are placed in sandy loam in plastic or organic plant pots, covered with soil and cultivated in a greenhouse under controlled growth conditions. 2 to 3 weeks after sowing, the test plants are treated at the one-leaf stage. The compounds of the invention, formulated in the form of wettable powders (WP) or as emulsion concentrates (EC), are then sprayed onto the green parts of the plants as aqueous suspension or emulsion with addition of 0.5% additive at a water application rate of 600 1/ha (converted). After the test plants have been kept in the greenhouse under optimum growth conditions for about 3 weeks, the activity of the preparations is rated visually in comparison to untreated controls. For example, 100% activity=the plants have died, 0% activity=like control plants. Tables A1 to A15 below show the effects of selected compounds of the general formula (I) according to Tables 1 and 2 on various harmful plants and an application rate corresponding to 320 g/ha and/or 80 g/ha, which were obtained by the experimental procedure mentioned above.
# LOLRI [2] = test: Herbicidal pre-emergence action 2a (greenhouse pots, visual scoring); assay type: in vivo, Lolium rigidum; details: dosage 320 g/ha, visual scoring after about 3 weeks vs untreated controls
# Outline: (§3)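 The soil covering sown seeds is treated with an aqueous suspension or emulsion of wettable powder or emulsion concentrate (0.5% additive, 600 l/ha), corresponding to 320 g/ha and/or 80 g/ha. After about 3 weeks of greenhouse growth, damage is scored visually as a percentage.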
# VERPE = test: Herbicidal post-emergence action 1a (greenhouse pots, visual rating); assay type: in vivo, Veronica persica; details: visual rating about 3 weeks after treatment
# Outline: as §1
# ALOMY = test: as above; assay type: in vivo, Alopecurus myosuroides; details: Dosage 320 g/ha; rated visually about 3 weeks after treatment; 100% = plants have died, 0% = like control plants
# Outline: as §1
# MATIN [3] = test: Herbicidal pre-emergence action 2a (greenhouse pots, visual scoring); assay type: in vivo, Matricaria inodora; details: dosage 320 g/ha, visual scoring after about 3 weeks vs untreated controls
# Outline: as §3
# ABUTH = test: Herbicidal post-emergence action 1a (greenhouse pots, visual rating); assay type: in vivo, Abutilon theophrasti; details: dosage 320 g/ha, visual rating about 3 weeks after treatment
# Outline: as §1
# ECHCG [4] = test: Herbicidal pre-emergence action 2a (greenhouse pots, visual scoring); assay type: in vivo, Echinochloa crus-galli; details: dosage 320 g/ha, visual scoring after about 3 weeks
# Source text: [table] a) Seeds of monocotyledonous and dicotyledonous weed plants and crop plants are placed in plastic or organic plant pots and covered with soil. The compounds of the invention, formulated in the form of wettable powders (WP) or as emulsion concentrates (EC), are then applied onto the surface of the covering soil as aqueous suspension or emulsion with addition of 0.5% additive at a water application rate of 600 1/ha (converted). After the treatment, the pots are placed in a greenhouse and kept under good growth conditions for the trial plants. After about 3 weeks, the effect of the preparations is scored visually in comparison with untreated controls as percentages. For example, 100% activity=the plants have died, 0% activity=like control plants. Tables B1 to B15 below show the effects of selected compounds of the general formula (I) according to Tables 1 and 2 on various harmful plants and an application rate corresponding to 320 g/ha and/or 80 g/ha, which were obtained by the experimental procedure mentioned above.
# SETVI = test: Herbicidal post-emergence action 1a (greenhouse pots, visual rating); assay type: in vivo, Setaria viridis; details: Dosage 320 g/ha; rated visually about 3 weeks after treatment; 100% = plants have died, 0% = like control plants
# Outline: as §1
# AVEFA = test: as above; assay type: in vivo, Avena fatua; details: Dosage 320 g/ha; rated visually about 3 weeks after treatment; 100% = plants have died, 0% = like control plants
# Outline: as §1
# MATIN [5] = test: as above; assay type: in vivo, Matricaria inodora; details: dosage 320 g/ha, visual rating about 3 weeks after treatment
# Procedure: as §2
# AMARE [6] = test: as above; assay type: in vivo, Amaranthus retroflexus; details: dosage 320 g/ha, visual rating about 3 weeks after treatment
# Outline: as §1
# LOLRI [7] = test: as above; assay type: in vivo, Lolium rigidum; details: Dosage 320 g/ha; rated visually about 3 weeks after treatment; 100% = plants have died, 0% = like control plants
# Procedure: as §2
# PHBPU = test: as above; assay type: in vivo, Pharbitis purpurea; details: dosage 320 g/ha, visual rating about 3 weeks after treatment
# Procedure: as §2
# STEME = test: Herbicidal pre-emergence action 2b (doubly sown, 1280 g/ha); assay type: in vivo, Stellaria media; details: doubly sown pots, dosage 1280 g/ha, visual scoring after about 3 weeks
# Outline: (§4)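 Weed seeds sown in sandy loam, two species per pot, covered with soil; compounds as WP or EC applied to soil surface as aqueous suspension/emulsion with 0.5% additive at 600 L/ha water. Greenhouse growth; visual % activity vs untreated controls after about 3 weeks (100% = dead, 0% = like control).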
# DIGSA [8] = test: Herbicidal post-emergence action 1b (twin sowing, 1280 g/ha); assay type: in vivo, Digitaria sanguinalis; details: dosage 1280 g/ha, visual rating about 3 weeks after treatment
# Procedure: (§5) [table] b) Seeds of mono- and dicotyledonous weed plants are placed in plastic pots in sandy loam soil (twin sowing with one species each of mono- or dicotyledonous weed plants per pot), covered with soil and cultivated in a greenhouse under controlled growth conditions. 2 to 3 weeks after sowing, the test plants are treated at the one-leaf stage. The compounds of the invention, formulated in the form of wettable powders (WP) or as emulsion concentrates (EC), are applied to the green parts of the plants as aqueous suspension or emulsion with addition of 0.5% additive at a water application rate equivalent to 600 litres per hectare. After the test plants have been kept in the greenhouse under optimum growth conditions for about 3 weeks, the activity of the preparations is rated visually in comparison to untreated controls. For example, 100% activity=the plants have died, 0% activity=like control plants. Tables A16 to A21 below show the effects of selected compounds of the general formula (I) according to Tables 1 and 2 on various harmful plants and at an application rate corresponding to 1280 g/ha, which were obtained by the experimental procedure mentioned above.
# POAAN [9] = test: Herbicidal pre-emergence action 2b (doubly sown, 1280 g/ha); assay type: in vivo, Poa annua; details: doubly sown pots, dosage 1280 g/ha, visual scoring after about 3 weeks
# Outline: as §4
# MATIN [10] = test: Herbicidal post-emergence action 1b (twin sowing, 1280 g/ha); assay type: in vivo, Matricaria inodora; details: dosage 1280 g/ha, visual rating about 3 weeks after treatment
# Procedure: as §5
# MATIN [11] = test: Herbicidal pre-emergence action 2b (doubly sown, 1280 g/ha); assay type: in vivo, Matricaria inodora; details: doubly sown pots, dosage 1280 g/ha, visual scoring after about 3 weeks
# Outline: as §4
# DIGSA [12] = test: as above; assay type: in vivo, Digitaria sanguinalis; details: doubly sown pots, dosage 1280 g/ha, visual scoring after about 3 weeks
# Source text: [table] b) Seeds of mono- and dicotyledonous weed plants are placed in plastic pots in sandy loam soil (doubly sown with one species each of mono- or dicotyledonous weed plants per pot) and covered with soil. The compounds of the invention, formulated in the form of wettable powders (WP) or as emulsion concentrates (EC), are then applied onto the surface of the covering soil as aqueous suspension or emulsion with addition of 0.5% additive at a water application rate equivalent to 600 litres per hectare. After the treatment, the pots are placed in a greenhouse and kept under good growth conditions for the trial plants. After about 3 weeks, the effect of the preparations is scored visually in comparison with untreated controls as percentages. For example, 100% activity=the plants have died, 0% activity=like control plants. Tables B16 to B21 below show the effects of selected compounds of the general formula (I) according to Tables 1 and 2 on various harmful plants and at an application rate corresponding to 1280 g/ha, which were obtained by the experimental procedure mentioned above.
# AMARE [13] = test: as above; assay type: in vivo, Amaranthus retroflexus; details: doubly sown pots, dosage 1280 g/ha, visual scoring after about 3 weeks
# Outline: as §4
# POAAN [14] = test: Herbicidal post-emergence action 1b (twin sowing, 1280 g/ha); assay type: in vivo, Poa annua; details: dosage 1280 g/ha, visual rating about 3 weeks after treatment
# Outline: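 Twin-sown mono- and dicot weeds in sandy loam were sprayed post-emergence at the one-leaf stage, 2–3 weeks after sowing, with WP or EC formulations in water plus 0.5% additive at 600 L/ha. After about 3 weeks in the greenhouse, activity was rated visually against untreated controls (0% = like control, 100% = plants dead).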
# ECHCG [15] = test: as above; assay type: in vivo, Echinochloa crus-galli; details: dosage 1280 g/ha, visual rating about 3 weeks after treatment
# Procedure: as §5
# ECHCG [16] = test: Herbicidal pre-emergence action 2b (doubly sown, 1280 g/ha); assay type: in vivo, Echinochloa crus-galli; details: doubly sown pots, dosage 1280 g/ha, visual scoring after about 3 weeks
# Outline: as §4
SMILES,Pre-emergence action at 1280 g/ha against STEME in % (STEME),Post-emergence action at 1280 g/ha against DIGSA in % (DIGSA [8]),Pre-emergence action at 1280 g/ha against POAAN in % (POAAN [9]),Post-emergence action at 1280 g/ha against MATIN in % (MATIN [10]),Pre-emergence action at 1280 g/ha against MATIN in % (MATIN [11]),Pre-emergence action at 1280 g/ha against DIGSA in % (DIGSA [12]),Pre-emergence action at 1280 g/ha against AMARE in % (AMARE [13]),Post-emergence action at 1280 g/ha against POAAN in % (POAAN [14]),further results
CCOC(=O)COc1nn(-c2cnccn2)c(-c2cncc(F)c2)c1F [Example I-94],,,,,,,,,Post-emergence action against POLCO in % (POLCO): 80%; Post-emergence action against ECHCG in % (ECHCG [1]): 90%; Pre-emergence action against LOLRI in % (LOLRI [2]): 90%; Post-emergence action against VERPE in % (VERPE; dosage 80 g/ha): 90%; Post-emergence action against VERPE in % (VERPE; dosage 320 g/ha): 90%; Post-emergence action against ALOMY in % (ALOMY): 80%; Pre-emergence action against MATIN in % (MATIN [3]): 90%; Post-emergence action against ABUTH in % (ABUTH): 90%; Pre-emergence action against ECHCG in % (ECHCG [4]): 100%; Post-emergence action against SETVI in % (SETVI): 90%; Post-emergence action against AVEFA in % (AVEFA): 80%; Post-emergence action against MATIN in % (MATIN [5]): 80%; Post-emergence action against AMARE in % (AMARE [6]): 80%; Post-emergence action against LOLRI in % (LOLRI [7]): 90%; Post-emergence action against PHBPU in % (PHBPU): 100%
COC(=O)COc1nn(-c2cnccn2)c(-c2cnc(F)c(F)c2)c1Br [Example I-42],90%,90%,100%,100%,90%,100%,90%,100%,
CCOC(=O)COc1nn(-c2nccnc2F)c(-c2ccc(F)c(F)c2)c1Br [Example I-74],100%,90%,100%,90%,100%,100%,100%,90%,
CCOC(=O)COc1nn(-c2nccnc2Cl)c(-c2ccc(F)nc2)c1Br [Example I-71],100%,90%,100%,100%,100%,100%,100%,100%,Post-emergence action at 1280 g/ha against ECHCG in % (ECHCG [15]): 100%; Pre-emergence action at 1280 g/ha against ECHCG in % (ECHCG [16]): 100%
